In one data set the test system is PDX50. In words: HCC patient derived xenograft model PDX50.
In data set [1] the test system is 6 HCC PDO lines. In words: Annexin V / 7AAD flow cytometry apoptosis assay. In kind it is cell-based, human. The conditions noted are these: 700 μM, 350 μM, 96 h. How it is done: (§1) FIG. 5A-5E. Apoptosis analysis of HCC PDOs treated with omacetaxine in vitro. Organoids were plate on 24 well plate, omacetaxine at 700 μM, 350 μM were added to cell culture medium for 96 h. Then cells were collected and subjected to the analysis below. (5A and 5C). […] (5B and 5D). Flow cytometry analysis of cleaved caspase 3 expression of omacetaxine treated HCC PDOs. […] The effects on proliferation were assessed to elucidate the omacetaxine mechanisms of action. […] To further understand the effects of omacetaxine on cancer cell proliferation and cell cycle, the inventors performed FACS analysis of Ki67 protein. Ki-67 is a nuclear protein expressed in proliferating cells (in all phases of the cell cycle except G0)^22,23. Furthermore, the higher expression of Ki67 has been linked to poorer disease free survival and overall survival in HCC^24. […] As caspase 3 is a key molecule in apoptosis, the inventors measured its activated (cleaved) fragment.

Data set [2] deals with global protein synthesis in 6 HCC PDOs. Briefly: OP-Puro incorporation assay (EZClick Global Protein Synthesis Assay). The class given is cell-based, human. The text has this: (§2) FIG. 3A-3H. Mechanism of Omacetaxine action on different HCC patient derived organoids lines. (3A). […] (3B). […] (3C) The mean fluorescence intensity ratio reflected protein synthesis rate of the plots data in (a). (3D-3H).

Data set [3] concerns 6 HCC PDO lines. In words: cleaved caspase 3 flow cytometry. The class given is cell-based, human. How it is done:
as §1, with “5C). Flow cytometry analysis of 4 HCC PDOs apoptosis using Annexin V/7AAD assay.” for “5C).”
(Flow cytometry measures light scatter and fluorescence of single cells or particles in a stream.)

A further data set concerns 26-3 PDX. In words: Cleaved Caspase 3 staining of PDX tumor frozen sections. The class given is in vivo, NSG mice. The conditions noted are these: omacetaxine treated HCC PDX tumors vs matched controls. An excerpt: FIG. 8A-8G. Omacetaxine inhibits tumor cell proliferation and increases apoptosis and suppressed HCC oncoprotein expression in vivo. (8A-8D) Immunofluorescent staining of Ki67 and cleaved caspase 3 expression in 26-3 PDX model. 8A-8B show the IF staining pictures, 8C-8D show the relative Ki67 or cleaved caspase 3 positive cell number in omacetaxine treated mice compared with control treatment groups. (8E-8G) Omacetaxine suppressed HCC oncoprotein: c-Myc, Beta-catenin and MET protein expression in 50 HCC PDX treated with Omacetaxine vs control.
To verify the mechanism of omacetaxine target HCC mechanism in vivo, omacetaxine treated HCC PDX tumors, as well as matched controls, were harvested, and frozen section slides were made. […] The difference in apoptosis as well as proliferation was statistically significant (FIGS. 8C and 8D).

For data set [4], the system named is 6 HCC PDO lines. Briefly: FACS analysis of Ki67 protein. In kind it is cell-based, human. The conditions noted are these: all 6 HCC PDO lines tested. How it is done: FIG. 4A-4D. Proliferation assay of HCC PDOs treated with omacetaxine in vitro. […] (4B and 4D).Ki67 expression from 6 HCC PDO lines treated with omacetaxine were analyzed with flow cytometry. […] The effects on proliferation were assessed to elucidate the omacetaxine mechanisms of action. […] To further understand the effects of omacetaxine on cancer cell proliferation and cell cycle, the inventors performed FACS analysis of Ki67 protein. Ki-67 is a nuclear protein expressed in proliferating cells (in all phases of the cell cycle except G0)^22,23. Furthermore, the higher expression of Ki67 has been linked to poorer disease free survival and overall survival in HCC^24. […] As caspase 3 is a key molecule in apoptosis, the inventors measured its activated (cleaved) fragment.

The subject of another data set is beta-catenin. In words: oncoprotein level by FACS at 96 h in 6 HCC PDO lines. In kind it is cell-based, human.
From the text: as §2
(§3) Select oncoproteins, such as MYC, beta-catenin, Cyclin D1, XIAP and MET are short half-life proteins^20, 26, 27.

A further data set relates to XIAP. The data set is described as above. In kind it is cell-based, human.
From the text: as §2, §3

A further data set deals with MET. The description is as above. In kind it is cell-based, human.
From the text: as §2, §3

The next data set has as its system MYC. The description is as above. In kind it is cell-based, human.
From the text: as §2, §3

A further data set has as its system Cyclin D1. The description is as above. The class given is cell-based, human.
From the text: as §2, §3

In another data set the test system is 40 HCC PDO lines. Briefly: 10 μM drug screening, cell viability at 96 h (CellTiter-Glo). In kind it is cell-based, human. How it is done: FIG. 2A-2E. 10 μM drug screening and IC50 calculation across 40 PDOs from 20 HCC patients. (2A). 10 μM drug screening of omacetaxine and sorafenib, regorafenib, lenvatinib and cabozantinib on 40 PDOs derived from 20 HCC patients. X axis—the 40 PDO lines, Y axis—Cell viability. (2B). IC50 curve of 40 PDO lines, x-axis—omacetaxine dose, Y axis—Relative cell viability. (2C). […] (2D). IC50 distribution of 40 HCC PDOs. X axis—PDO lines, Y axis—IC50 number of omacetaxine for each PDO.
As readout of drug effectiveness, cell viability at 96 hours (h) was measured. White light microscopy images of one of the HCC PDO lines across 129 drugs was prepared. In FIG. 2E, each panel represents the image collected at 96 hours after treatment with each drug, at a concentration of 10 μM. […] To quantify survival, we implemented CellTiter-Glo, a luminescent cell viability assay. A total of 129 readings (one for each drug) was obtained for each of the 40 PDO lines, for a total of […] data points. […] Next, the inventors contrasted the survival of the […] HCC PDO lines when treated with omacetaxine versus current FDA approved drugs for HCC.

Structures are written as SMILES.

This note sets out measurements from patent US20220226342A1, “COMPOSITIONS AND METHODS OF TREATING LIVER CANCERS” (The Johns Hopkins University, priority 2019, published 2022).

From the text for PDX50: P<0.001. Error bars represent Mean±standard deviation. Not significant (NS).
The second model, PDX50, was established by directly implanting pieces of the fresh human HCC tumor into NSG mice. After initial implantation, PDX50 is perpetuated similarly to PDX26-3. […] PDX50 is less aggressive—mice continue to be active, to eat and function normally, in spite of very large tumors. Therefore, PDX50 is not ideal for survival determinations.

Consider `COC(=O)C[C@](O)(CCCC(C)(C)O)C(=O)O[C@@H]1C(OC)=C[C@]23CCCN2CCc2cc4c(cc2[C@H]13)OCO4` [omacetaxine, omacetaxine mepusuccinate], for which, in the data set on PDX50, the “body mass of mice, treatment vs. control group” value is “no difference in the body mass”. Further, the tumor growth result in the data set on PDX50 (PDX50 mice, treatment applied directly into the tumor) is “halting of tumor growth”. In addition, the “early / late apoptosis (Annexin V, 7AAD)” value with 6 HCC PDO lines [1] is recorded as “either early apoptosis, or late apoptosis, or both were increased”. The global protein synthesis result in data set [2] (150 nM and 700 nM, 6 HCC PDOs, 36 h) was “drastically inhibited global protein synthesis”. Besides, in [2] (700 nM vs 150 nM), the “protein synthesis inhibition at 700 nM compared with 150 nM” value was “did not induce any further inhibition of protein synthesis”. Moreover, in the data set with 6 HCC PDO lines [3], the “cleaved caspase 3” value was “induced”. Also, the “apoptosis as quantified by Cleaved Caspase 3 staining” value in the data set on 26-3 PDX is “increased”. In addition, the “expression of Ki67” value in the data set with 6 HCC PDO lines [4] is listed as “reduces the expression of Ki67”. In addition, the beta-catenin level entry in the data set on beta-catenin is recorded as “inhibited”. Also, the XIAP level entry in the data set on XIAP was “inhibited”. In the data set with MET, the MET level result is “inhibited”. The MYC level result in the data set with MYC is listed as “inhibited”. For the same compound, the “Cyclin D1 level” value in the data set with Cyclin D1 is “inhibited”. Besides, in the data set on 40 HCC PDO lines, the “survival of HCC PDO lines versus FDA approved HCC drugs (sorafenib, lenvatinib, regorafenib, cabozantinib)” value is “significantly more effective than first line HCC drugs (sorafenib and lenvatinib) and second line HCC drugs (regorafenib and cabozantinib”. Moreover, the “effectiveness in screen (growth inhibited by ≥50%)” value in the data set on 40 HCC PDO lines (96 h) is on record as “effective across all 40 HCC PDO lines”. Further, the “average HCC PDO survival” value in the data set on 40 HCC PDO lines (96 h, across all 40 HCC PDO lines) is recorded as 4.2%.
